# Laboratory results: patent US4689345A, “Oxygenated alkyl substituted bicyclo alkanes” (CBD Corporation, priority 1986, dated 1987)
# Legend:
# [1] = system: estrogen receptor; assay: Estrogen receptor inhibition, Saccharomyces cerevisiae strains; conditions: DHT:anti-androgen 1:1,000
# [2] = system: estrogen receptor; assay: Estrogen receptor inhibition, Coccodia; format: binding
# [3] = system: progesterone receptor; assay: Progesterone receptor inhibition, Saccharomyces cerevisiae strains; conditions: DHT:anti-androgen 1:1,000
# [4] = system: androgen receptor; assay: Androgen receptor inhibition, Blastomyces; format: binding
# [5] = system: keloid; assay: Suppression of keloid formation; parameters: species or system human
# [6] = target: T1, androgen receptor sites (keloid cytosol) (Homo sapiens, UniProt P10275); assay: Keloid cytosol steroid binding assay, androgen (DHT)
# T1 construct: Surgical excision of keloids was performed from clinic and private patient populations; from tissue; host or cells: cytosol of surgically excised keloids
# T1 sequence (P10275 1-920): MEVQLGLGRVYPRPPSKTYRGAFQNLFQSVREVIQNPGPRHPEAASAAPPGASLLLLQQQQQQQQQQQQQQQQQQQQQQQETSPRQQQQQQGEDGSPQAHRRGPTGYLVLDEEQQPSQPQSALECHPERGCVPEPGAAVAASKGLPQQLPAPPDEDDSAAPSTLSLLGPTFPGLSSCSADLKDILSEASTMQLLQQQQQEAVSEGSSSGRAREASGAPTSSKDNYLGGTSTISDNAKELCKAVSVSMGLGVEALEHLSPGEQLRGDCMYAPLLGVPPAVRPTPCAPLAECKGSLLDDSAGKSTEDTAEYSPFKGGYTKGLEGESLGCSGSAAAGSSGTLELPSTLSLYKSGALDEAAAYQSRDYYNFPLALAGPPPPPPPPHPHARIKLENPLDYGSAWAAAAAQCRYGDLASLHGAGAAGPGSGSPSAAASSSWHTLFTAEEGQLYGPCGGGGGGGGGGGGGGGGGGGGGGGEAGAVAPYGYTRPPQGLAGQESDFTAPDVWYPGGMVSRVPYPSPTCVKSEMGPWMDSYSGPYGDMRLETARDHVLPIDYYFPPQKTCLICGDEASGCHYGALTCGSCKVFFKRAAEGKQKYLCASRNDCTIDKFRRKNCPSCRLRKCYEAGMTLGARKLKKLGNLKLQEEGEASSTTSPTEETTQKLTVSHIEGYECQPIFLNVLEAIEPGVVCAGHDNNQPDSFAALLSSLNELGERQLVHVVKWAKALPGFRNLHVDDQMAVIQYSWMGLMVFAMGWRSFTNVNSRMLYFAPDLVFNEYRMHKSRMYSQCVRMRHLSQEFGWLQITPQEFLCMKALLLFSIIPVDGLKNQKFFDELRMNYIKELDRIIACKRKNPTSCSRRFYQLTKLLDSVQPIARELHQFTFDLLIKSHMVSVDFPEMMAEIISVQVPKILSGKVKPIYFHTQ
# [7] = target: T2, androgen receptor (Homo sapiens, UniProt P10275); assay: Androgen receptor blocking in breast capsule (hard band) tissue; format: binding; parameters: from tissue; host or cells: breast capsule (hard fibrous band) tissue; concentration or dose not given beside the values
# T2 sequence (P10275 1-920): T1 sequence (P10275 1-920)
# Text: In addition to interabdominal adhesions following surgery, the other most common post-surgical fibrous complication is that of a hard fibrous band developing around breast implants following breast augmentation surgery. It has been postulated that these bands may be caused by keloid formation under the skin. Such tissues were studied to evaluate the effect of the anti-androgens of this invention on other keloid tissue.
smiles,measurement,setting,value
CCC(O)CCCCC1CCC2CC(=O)CC12 (stereo not shown) [Compound IV],% Estrogen Receptor Inhibition,[1]; strain 1,0%
same,% Estrogen Receptor Inhibition,[1]; strain 2,0%
same,% Estrogen Receptor Inhibition,[1]; strain 3,0%
same,% Estrogen Receptor Inhibition,[1]; strain 4,0%
same,% Estrogen Receptor Inhibition,[1]; strain 5,0%
same,% Estrogen Receptor Inhibition,[1]; strain 6,0%
same,% Estrogen Receptor Inhibition,[1]; strain 7,0%
same,% Estrogen Receptor Inhibition,[2],0%
same,% Progesterone Receptor Inhibition,[3]; strain 1,2%
same,% Progesterone Receptor Inhibition,[3]; strain 2,1%
same,% Progesterone Receptor Inhibition,[3]; strain 3,0%
same,% Progesterone Receptor Inhibition,[3]; strain 4,0%
same,% Progesterone Receptor Inhibition,[3]; strain 5,3%
same,% Progesterone Receptor Inhibition,[3]; strain 6,8%
same,% Progesterone Receptor Inhibition,[3]; strain 7,4%
same,% Androgen Receptor Inhibition,[4],49%
"CCC(CCCCC1CCC2CC(=O)CC12)OC (stereo not shown) [Compound V, 2-(5-Methoxyhept-1-yl)bicyclo[3.3.0]octan-7-one]",keloid formation,[5],suppression of keloid formation
same,% Block,"[6]; patient 1, suprapubic",43%
same,% Block,"[6]; patient 2, chest",24%
same,% Block,"[6]; patient 3, neck",57%
same,% Block,"[6]; patient 4, inguinal groin",86%
same,Mean % Androgen Inhibition,[7]; breast capsule group 1,17%
same,Mean % Androgen Inhibition,[7]; breast capsule group 2,49%
same,Mean % Androgen Inhibition,[7]; breast capsule group 3,70%
same,Mean % Androgen Inhibition,[7]; breast capsule group 4,74%
